From US6552060B1, “Asymmetric disulfides and methods of using same” (Prolx Pharmaceuticals, Inc., priority 1997, dated 2003)

biological target: T1, TR/Trx (Homo sapiens, UniProt Q16881); assay: Thioredoxin dependent reduction of insulin by human thioredoxin reductase and NADPH (IC50 TR/Trx, 96 well); assay type: biochemical; conditions: Table 3; read-out: IC50 TR/Trx (converted)
T1 sequence (Q16881 1-499 isoform Q16881-5): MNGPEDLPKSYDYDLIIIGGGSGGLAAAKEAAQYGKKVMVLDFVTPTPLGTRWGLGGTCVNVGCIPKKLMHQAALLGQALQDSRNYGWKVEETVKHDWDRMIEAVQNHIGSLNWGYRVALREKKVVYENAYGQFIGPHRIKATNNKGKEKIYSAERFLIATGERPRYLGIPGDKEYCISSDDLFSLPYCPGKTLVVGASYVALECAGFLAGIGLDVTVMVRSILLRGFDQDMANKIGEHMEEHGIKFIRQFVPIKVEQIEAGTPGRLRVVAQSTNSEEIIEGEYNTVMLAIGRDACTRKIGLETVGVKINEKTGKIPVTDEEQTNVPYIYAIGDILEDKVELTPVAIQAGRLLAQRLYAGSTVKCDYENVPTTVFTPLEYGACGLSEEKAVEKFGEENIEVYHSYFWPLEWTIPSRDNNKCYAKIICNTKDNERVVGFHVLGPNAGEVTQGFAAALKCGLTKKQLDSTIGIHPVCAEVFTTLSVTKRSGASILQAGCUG
Description: When referring to the particular system being analyzed IC50 is typically followed by an abbreviation referring to that system (i.e., IC50 TR/Trx for the above described thioredoxin redox system which is comprised of thioredoxin reductase and thioredoxin).
A second plate was used for the assessment of biological activity or as a biological screen. Aliquots of disulfides dissolved in DMSO, were be transferred into 96 well plates. The assay to assess their ability to inhibit thioredoxin reductase measures the thioredoxin dependent reduction of insulin by human thioredoxin reductase and NADPH. The effects of the disulfides on the reduction of Trx by TR were measured spectrophotometrically by following the reduction of NADPH at 339 nm with insulin as the final electron acceptor in a buffered mixture of TR, Trx, NADPH and insulin.

SMILES	IC50 [µM]
CC(C)CSSc1ncccc1C(=O)O [Compound G-23]	57.5

same assay, conditions: Table 4

SMILES	Disulfide inhibition of TR/Trx (IC50 TR/Trx) [µg/mL]
CCCCSSC(C)c1ccccc1 (stereo not drawn) [Compound C-22]	194
CCCCSSc1nccc(C)n1 [Compound C-24]	48
COc1cccc(CSSC(C)c2ccccc2)c1 (stereo not drawn) [Compound J-20]	74
CCSSc1ncccc1C(=O)O [Compound A-23]	35
CC(SSc1nc2cc([N+](=O)[O-])ccc2[nH]1)c1ccccc1 (stereo not drawn) [Compound J-10]	43
CC(SSCc1ccccc1)c1ccccc1 (stereo not drawn) [Compound J-19]	>232
CC(SSc1nccn1C)c1ccccc1 (stereo not drawn) [Compound J-2]	12
CC(C)CSSC(C)c1ccccc1 (stereo not drawn) [Compound G-22]	201
CCC(C)SSCc1ccc(OC)cc1 (stereo not drawn) [Compound F-21]	60
CCCCSSc1ncnc2[nH]cnc12 [Compound C-7]	33
CCSSc1nnc(C)s1 [Compound A-3]	75
CC(C)CSSc1nc2ccccc2o1 [Compound G-12]	52
CCCSSc1nnc(C)s1 [Compound B-3]	85
CC(SSc1nc2ccccc2[nH]1)c1ccccc1 (stereo not drawn) [Compound J-8]	8
CCCCSSc1ncccc1C(=O)O [Compound C-23]	65
CC(SSc1nc(N)nc2[nH]cnc12)c1ccccc1 (stereo not drawn) [Compound J-6]	38
CCCCSSc1nc2ccccc2o1 [Compound C-12]	42
CCSSc1nnc(S)s1 [Compound A-4]	35
CCCCSSCc1ccc(OC)cc1 [Compound C-21]	179
CCCCSSc1nc2cc(C)ccc2[nH]1 [Compound C-9]	12
CC(SSc1ncccc1C(=O)O)c1ccccc1 (stereo not drawn) [Compound J-23]	89
Sc1nnc(SSCc2ccccc2)s1 [Compound I-4]	5
CC(C)CSSc1nccn1C [Compound G-2]	125
CCCCSSc1nnc(C)s1 [Compound C-3]	9
Cc1nnc(SSC(C)c2ccccc2)s1 (stereo not drawn) [Compound J-3]	11
CCCCSSc1nc(N)nc2[nH]cnc12 [Compound C-6]	33

SMILES	Disulfide inhibition of TR/Trx (IC50 TR/Trx) [µg/mL]
Cc1ccc2[nH]c(SSC(C)c3ccccc3)nc2c1 (stereo not drawn) [Compound J-9]	43
CC(SSc1nc2ccccc2o1)c1ccccc1 (stereo not drawn) [Compound J-12]	16
CCCCSSCc1ccccc1 [Compound C-19]	>189
CCCSSc1nnc(S)s1 [Compound B-4]	35
Cc1ccnc(SSC(C)c2ccccc2)n1 (stereo not drawn) [Compound J-24]	67
Cc1ccc2[nH]c(SSCC(C)C)nc2c1 [Compound G-9]	11
O=C(O)c1cccnc1SSCc1ccccc1 [Compound I-23]	35
CCCCSSC1CCCC1 [Compound C-27]	51
Cc1ccnc(SSCc2ccccc2)n1 [Compound I-24]	35
CCCCSSc1nnc(S)s1 [Compound C-4]	56
CC(SSc1nnc(S)s1)c1ccccc1 (stereo not drawn) [Compound J-4]	42
Cc1ccnc(SSCC(C)C)n1 [Compound G-24]	65
CCCCSSc1nc2ccccc2[nH]1 [Compound C-8]	57
CC(C)CSSCc1ccccc1 [Compound G-19]	>189
CC(C)CSSc1nc2ccccc2[nH]1 [Compound G-8]	18
COc1ccc(CSSCC(C)C)cc1 [Compound G-21]	>203
CCCCSSCc1cccc(OC)c1 [Compound C-20]	61
CCCSSc1nccn1C [Compound B-2]	75
CC(C)SSc1nnc(S)s1 [Compound E-4]	35
CCSSc1nccc(C)n1 [Compound A-24]	90
COc1ccc(CSSC(C)c2ccccc2)cc1 (stereo not drawn) [Compound J-21]	74
Cn1ccnc1SSCc1ccccc1 [Compound I-2]	100
CCCCSSc1nc2cc([N+](=O)[O-])ccc2[nH]1 [Compound C-10]	>76
Cc1nnc(SSCc2ccccc2)s1 [Compound I-3]	9
Cc1nnc(SSCC(C)C)s1 [Compound G-3]	29

system: EMT6 mouse mammary tumor cells; assay: Cytotoxicity against EMT6 cells in culture (MTT); conditions: read-out: Disulfide Cytotoxicity (IC50), Table 5, 48 h exposure

SMILES	IC50 [µM]
CC(O)C(C)SSc1ncc[nH]1 (stereo not drawn) [Compound M-1]	34
CC(O)C(C)SSc1nc2ccccc2o1 (stereo not drawn) [Compound M-12]	29
CCC(C)SSCC(C)C(=O)N1CCCC1C(=O)O (stereo not drawn) [Compound F-28]	> 180
O=[N+]([O-])c1ccc2[nH]c(SSCCCCl)nc2c1 [Compound H-10]	59
CC(O)C(C)SSc1nc2ccccc2[nH]1 (stereo not drawn) [Compound M-8]	≥ 180
CC(O)C(C)SSCc1ccccc1 (stereo not drawn) [Compound M-19]	91
COc1cccc(CSSC(C)C)c1 [Compound E-20]	> 180
CC(C)SSc1ccccc1 [Compound E-13]	> 180
CC(CSSC(C)C(C)O)C(=O)N1CCCC1C(=O)O (stereo not drawn) [Compound M-28]	≥ 180
Cc1ccc2[nH]c(SSC(C)C)nc2c1 [Compound E-9]	> 180
ClCCCSSc1ncnc2[nH]cnc12 [Compound H-7]	36
Cc1nnc(SSCCCCl)s1 [Compound H-3]	> 180
CC1CCC(C(C)(C)SSCCC(=O)O)C(=O)C1 (stereo not drawn) [Compound N-26]	≥ 180
O=C(O)CCSSc1nc2ccccc2[nH]1 [Compound N-8]	≥ 180
Cc1ccnc(SSC(C)C(C)O)n1 (stereo not drawn) [Compound M-24]	≥ 180
CC(O)C(C)SSc1ncccc1C(=O)O (stereo not drawn) [Compound M-23]	96
COc1cccc(CSSCCCCl)c1 [Compound H-20]	91
CC(C)SSc1nc2ccccc2o1 [Compound E-12]	> 180
ClCCCSSCc1ccccc1 [Compound H-19]	108
CCC(C)SSC1=NCCS1 (stereo not drawn) [Compound F-25]	31
Cc1ccc2[nH]c(SSCCCCl)nc2c1 [Compound H-9]	66

SMILES	IC50 [µM]
CC(C)SSc1nc(N)nc2[nH]cnc12 [Compound E-6]	42
CC(C)SSCC(C)C(=O)N1CCCC1C(=O)O (stereo not drawn) [Compound E-28]	> 180
CC(C)SSc1ncnc2[nH]cnc12 [Compound E-7]	> 180
Cc1ccc2[nH]c(SSC(C)C(C)O)nc2c1 (stereo not drawn) [Compound M-9]	76
CC(C)SSc1nc2cc([N+](=O)[O-])ccc2[nH]1 [Compound E-10]	29
ClCCCSSc1nc2ccccc2[nH]1 [Compound H-8]	82
CC(O)C(C)SSc1ncnc2[nH]cnc12 (stereo not drawn) [Compound M-7]	≥ 180
CC(C)SSC(C)c1ccccc1 (stereo not drawn) [Compound E-22]	> 180
O=C(O)c1cccnc1SSCCCCl [Compound H-23]	69
ClCCCSSc1ccccc1 [Compound H-13]	> 180
Cn1ccnc1SSCCCCl [Compound H-2]	> 180
ClCCCSSc1ncc[nH]1 [Compound H-1]	> 180
CC(SSC(C)C(C)O)c1ccccc1 (stereo not drawn) [Compound M-22]	≥ 180
CC(O)C(C)SSc1nc(N)nc2[nH]cnc12 (stereo not drawn) [Compound M-6]	32
Cc1nnc(SSC(C)C(C)O)s1 (stereo not drawn) [Compound M-3]	≥ 180
CCC(C)SSc1nc(N)nc2[nH]cnc12 (stereo not drawn) [Compound F-6]	23
CC(O)C(C)SSc1nc2cc([N+](=O)[O-])ccc2[nH]1 (stereo not drawn) [Compound M-10]	34
O=C(O)CCSSc1ncccc1C(=O)O [Compound N-23]	92
CCC(C)SSc1ccccc1 (stereo not drawn) [Compound F-13]	> 180
CC(C)SSc1nc2ccccc2[nH]1 [Compound E-8]	66
